From patent publication US12234257B2, “Triterpene saponin derivative and use thereof” (KOREA INSTITUTE OF SCIENCE AND TECHNOLOGY, priority 2020, dated 2025)
“Also recorded” adds a separate entry of the source.

Key:
Type in all cases: cell-based, human
SH-SY5Y cells = assay: MTT assay to measure cell viability
Experimental: Cell viability was detected using an MTT assay kit (Z-Cytox). Briefly, the SH-SY5Y cells were seeded on a 96-well plate at a density of 2×10^4 cells/well with 100 μL of a culture medium. After 24 hours, the SH-SY5Y cells were treated with AKNS-2 and/or MPP^+ having desired concentrations to identify cytotoxicity of AKNS-2 and MPP^+. After 24 hours, 10 μL of the MTT reagent was added to each well of the 96-well plate including the cells. Absorbance was measured at 450 nm using a microplate spectrophotometer (BioTek, Vt., USA). […] The next day, absorbance was measured at 1 hour after adding the MTT reagent thereto.

[1] = test system: LC3, p62, TH and α-synuclein in SH-SY5Y cells; assay: Western blot of LC3, p62, TH and α-synuclein in MPP^+-treated SH-SY5Y cells (in vitro PD model)
Experimental: (§1) Human neuroblastoma (SH-SY5Y) cells were purchased from the American Type Culture Collection (Manassas, Va., USA) and cultured in DMEM supplemented with 10% heat-inactivated FBS and 1% penicillin/streptomycin. The SH-SY5Y cells were cultured at 37° C. in a humid atmosphere containing 5% CO2. […] The SH-SY5Y cells were transfected with AMPK siRNA and then administered with AKNS-2 at 36 hours after siRNA transfection. […] After 24 hours from treatment with the samples, the SH-SY5Y cells were recovered and used for subsequent analysis. At 24 hours after drug treatment, the culture medium was removed from the 6-well plate, and the cells were gently washed once with cold saline. Subsequently, 1 mL of cold saline was added to each well, and cells attached to the bottom were floated by rubbing the bottom with a 1 mL pipette. The suspension was collected in a 1.5 mL tube and centrifuged at 4° C. at 13000×g for 5 minutes. After removing a supernatant, 50 μL of a RIPA lysis buffer including a protease inhibitor cocktail (Roche, Mannheim, Germany) and purchased from Cell Signaling Technology (Danvers, Mass., USA) was added to the cell pellet. After shaking the mixture at 4° C. for 30 minutes, the obtained cells were centrifuged at 4° C. at 13000×g for 20 minutes. A supernatant was collected therefrom, and a concentration of proteins was measured using a standard curve constructed using BSA by the Bradford method. Then, the supernatant was diluted with a loading buffer and heated at 99° C. for 5 minutes. Resultant cells were used in a subsequent western blot analysis. Protein markers contained in lysates of the SH-SY5Y cells and brain tissue of the mice (SNpc and ST) were measured by western blot analysis. Briefly, after determining a concentration, a protein sample (20 μg) was separated by 8%, 10%, or 15% sodium dodecyl sulfate-polyacrylamide gel electrophoresis (SDS-PAGE). Then, proteins separated on the gel were transferred to a polyvinylidene fluoride (PVDF) membrane for 45 minutes using a Trans-Blot Turbo Transfer System (Bio-Rad, USA). […] The membrane was further incubated with monoclonal primary antibodies derived from rabbits (anti-GAPDH, anti-AMPK, anti-p-AMPK, anti-ULK, anti-p-ULK555, anti-Erk, anti-p-Erk, anti-mTOR, anti-p-mTOR, anti-LC3B, anti-TH, and anti-α-synuclein antibodies). The primary antibodies were diluted in a blocking buffer at a ratio of 1:1000 and incubated overnight at 4° C. On the second day, the membrane was washed with TBST three times (10 minutes each) and incubated at room temperature in a horseradish peroxidase-conjugated goat anti-rabbit IgG secondary antibody (diluted in a blocking buffer at a ratio of 1:2000). After incubating in the secondary antibody for 1 hour, the membrane was washed for 30 minutes. The protein blots on the membrane were developed using an ECL detection kit and visualized using an LAS-4000 mini system (Fujifilm, Japan). The intensity of the protein blots was quantified using Multi Gauge software (Fujifilm, Japan).

[2] = test system: autophagy-related protein markers (LC3-II, p62, p-AMPK, p-Erk, p-ULK, p-mTOR) in SH-SY5Y cells; assay: Western blot of autophagy-related protein markers in SH-SY5Y cells
Experimental: as §1

[3] = test system: GFP-RFP-LC3-II puncta in SH-SY5Y cells; assay: Tandem fluorescent protein quenching assay (RFP-GFP-LC3); details: transfected SH-SY5Y cells, AKNS-2 10 μM + Baf 100 nM
Experimental: SH-SY5Y cells were cultured in a 24-well plate at a density of 8×10^4 cells/well on a glass cover slip. Transfection was performed in accordance with guidelines of the autophagy tandem RFP-GFP-LC3B kit. After culturing the cells for 24 hours, the cells were treated with an LC3B reagent. After the transfected cells were incubated for 24 hours, 50 nM Wart or 100 nM Baf was administered thereto, and then AKNS-2 (10 μM) was added thereto. The cells were immobilized with 4% paraformaldehyde and permeabilized with 0.1% Triton X100. Nuclei thereof were stained with 4,6-diamidino-2-phenylindole (DAPI, 25 μg/mL). Fluorescent signals were detected using a confocal microscope (Leica, Solms, Germany).

[4] = 10 μM U0126 30 minutes before AKNS-2 (5 μM and 10 μM)
[5] = 3-MA 5 mM 30 minutes before AKNS-2 10 μM

SMILES: N#CC(=C(/N)Sc1ccccc1N)/C(C#N)=C(\N)Sc1ccccc1N [Compound U0126, reference compound]
- protective effect of AKNS-2 on cell viability in presence of U0126 (SH-SY5Y cells; 10 μM U0126 + AKNS-2 (5 μM and 10 μM) + 2 mM MPP^+): cancels out protective effects of AKNS-2 on cell viability; also recorded: such enhancement was canceled out
- AKNS-2 effect on α-synuclein in presence of U0126 ([1]; 10 μM U0126 + AKNS-2 + 2 mM MPP^+): the protective effects were blocked
- AKNS-2 effect on TH expression in presence of U0126 ([1]; 10 μM U0126 before AKNS-2 and 2 mM MPP^+): the effects of AKNS-2 on increasing the expression of TH were inhibited
- AKNS-2-induced LC3-II expression in presence of U0126 [2, 4]: a significant decrease was observed in the expression of LC3-II; also recorded: blocked the effects of AKNS-2 (5 μM and 10 μM) on increasing the expression of LC3-II
- AKNS-2-inhibited p-mTOR expression in presence of U0126 [2, 4]: considerably restored
- AKNS-2-increased p-ULK expression in presence of U0126 ([2]; 10 μM U0126 + AKNS-2 10 μM): canceled out the effects of AKNS-2 (10 μM) on an increase in expression of p-ULK

SMILES: Cn1cnc(N)c2ncnc1-2 [Compound 3-MA, 3-methyladenine, reference compound]
- AKNS-2 effect on TH expression in presence of 3-MA ([1]; 3-MA + AKNS-2 + MPP^+): advantageous effects of AKNS-2 were canceled out
- expression of LC3-II with 3-MA ([1]; 3-MA vs group co-administered with AKNS-2 and MPP^+): significantly inhibited the expression of LC3-II
- AKNS-2-decreased p62 expression in presence of 3-MA [2, 5]: increases p62 expression; also recorded: remarkably blocked the inhibitory effects of AKNS-2 on the expression level of p62
- AKNS-2-up-regulated LC3-II expression in presence of 3-MA [2, 5]: decreases LC3-II expression; also recorded: the increased expression was significantly decreased

SMILES: CO/C1=C\C(C)=C\[C@@H](C)[C@@H](O)[C@@H](C)C/C(C)=C/C=C/[C@H](OC)[C@@H]([C@@H](C)[C@@H](O)[C@H](C)[C@@]2(O)C[C@@H](O)[C@H](C)[C@@H](C(C)C)O2)OC1=O [Baf, bafilomycin A1]
- AKNS-2-enhanced accumulation of LC3-II puncta with bafilomycin A1 [3]: increased green fluorescence and decreased red fluorescence
- AKNS-2-enhanced accumulation of LC3-II puncta with bafilomycin A1 ([3]; listed as bafilomycin A1): AKNS-2-induced autophagy is inhibited

SMILES: C[n+]1ccc(-c2ccccc2)cc1.[I-] [MPP^+, 1-methyl-4-phenylpyridinium (MPP^+) iodide, reference compound]
- cell viability (MTT) (SH-SY5Y cells; MPP^+ alone, 2 mM): significantly decreased cell viability
